Assay results taken from patent publication US20230241164A1, “C-Type Natriuretic Peptides and Methods Thereof in Treating Cancer” (PHARMAIN CORPORATION, priority 2020, published 2023).
Values joined by “and” are separate entries in the source; they are usually repeats but may differ in a detail not shown here. Equal entries are not always repeated. Numbered stars: 1 amine (or outer) side, 2 acyl side, 3 side chain; on linkers, the order of the positions; unused ones are H or OH. Bridge positions count the residues as written; N and C are the ends. Square brackets hold non-standard residues; d marks the D form. Peptide text beside a SMILES is read from it. * marks the point of attachment. C18 diacid = O=C(O)CCCCCCCCCCCCCCCCC(=O)*; γGlu = O=C(O)[C@H](CCC(=O)[*:2])N[*:1]; Aad = N[C@@H](CCCC(=O)O)C(=O)O; AEEA = NCCOCCOCC(=O)O

What was measured:
[1] = tested on: TRAMPC-1 mouse prostate cancer cells; experiment: Prostate cancer subcutaneous model, treatment from day 19, tumor size; type: in vivo, mice
Experimental: (§1) In this study, male C57BL/6J mice (6 weeks old, male, n=10) were purchased from Kyodo (Saga, Japan) and maintained under a 12-hour light/12-hour dark cycle with free access to water and standard mouse diet (MF diet; Oriental Yeast Co., Ltd. Tokyo Japan). Mice were implanted with TRAMPC-1 mouse prostate cancer cells (1,000,000 cells/mouse) (ATCC, Manassas, Va.) in the subcutaneous. From the 19th day (averaged tumor size was 70 mm3), mice were treated with a bolus dose of long acting CNP derivative or dCNP (described in Example 1) (0.3 mg/kg s.c. or 1.0 mg/kg s.c.) in buffer [Methionine 100 mM (Tokyo Chemical Industry Co., Ltd., Tokyo, Japan); Sucrose 100 mM (Tokyo Chemical Industry Co., Ltd.); Histidine 50 mM (Tokyo Chemical Industry Co., Ltd.); in H2O (Otsuka Pharmaceutical. Tokushima, Japan)], Docetaxel (DTX1 mg/kg i.p.) in Saline, all with or without anti-CD8 (5 mg/Kg i.p.; BioX cell; West Lebanon, N.H.) or Phosphate buffered saline (PBS) alone via i.p. All Docetaxel groups were used as mechanism of action comparator chemotherapeutic agent. Mice were treated total of two weeks (5 days of once daily, 2 days of rest, 5 days of once-daily treatment and 2 days rest). Anti-CD8 Ab was administered every 3 days starting day 19th. Tumor sizes were measured with caliper.

[2] = tested on: TRAMPC-1 mouse prostate cancer cells; experiment: Gene expression within prostate tumor (quantitative RT-PCR); type: in vivo, mice; conditions: tumor harvested at day 30
Experimental: as §1, with “Pharmaceutical,” for “Pharmaceutical.”, “(DTX 1” for “(DTX1”, “for 2” for “total of two”, “was harvested at day 30 and extracted RNA, then Quantitative RT-PCR was performed; error bars are SEM. Statistical analysis was performed by Student t-tests by using GraphPad Prism *P<0.05 or **P<0.01 vs. Control group (n=3-6).” for “sizes were measured with caliper.”

[3] = tested on: TRAMPC-1 mouse prostate cancer cells; experiment: Prostate cancer subcutaneous model, treatment from day 6, tumor size; type: in vivo, mice; conditions: Anti-CD8 Ab 5 mg/kg i.p.
Experimental: In this study, male C57BL/6J mice (6 weeks old, male, n=10) were purchased from Kyodo (Saga, Japan) and maintained under a 12-hour light/12-hour dark cycle with free access to water and standard mouse diet (MF diet; Oriental Yeast Co., Ltd. Tokyo Japan). Mice were implanted with TRAMPC-1 mouse prostate cancer cells (1,000,000 cells/mouse) (ATCC, Manassas, Va.) in the subcutaneous. From the 6th day (early stage of tumor growth), mice were treated with a bolus dose of dCNP (described in Example 1) (0.3 mg/kg s.c. or 1.0 mg/kg s.c.) with or without Anti-CD8 antibody (a-CD8; 5 mg/Kg i.p.; BioX cells, West Lebanon, N.H.) in buffer containing Methionine 100 mM (Tokyo Chemical Industry Co., Ltd., Tokyo, Japan); Sucrose 100 mM (Tokyo Chemical Industry Co., Ltd.); Histidine 50 mM (Tokyo Chemical Industry Co., Ltd.); in H2O (Otsuka Pharmaceutical, Tokushima, Japan)], Docetaxel (1 mg/kg i.p.) in Saline with or without Anti-CD8 Ab (5 mg/kg i.p.) as reference control, and or with Phosphate buffered saline (PBS) alone via i.p. as control. Mice were treated total of 14 days (5 days of once daily, 2 days of rest, 5 days of once-daily treatment and 2 days rest). Anti-CD8 Ab (a-CD8) was administered on −2, 1, 4, 7, 10 and 13th day. Tumor sizes were measured with caliper. Statistical analysis was performed by Student t-tests by using GraphPad Prism *P<0.0001 vs. Control or a-CD8 group (n=10). […]

[4] = Pharmacokinetic study of dCNP-s1 and dCNP-s2: plasma CNP after subcutaneous bolus in CD-1 mice; type: in vivo; conditions: subcutaneous bolus 2.0 mg/Kg, FIG. 30
Experimental: For this pharmacokinetic study, all animals (mice) for this study were maintained under a 12-hour light/12-hour dark cycle with free access to water and standard mouse diet (Lab Pico Rodent #5053; Animal Specialties, Woodburn, Oreg.). Male CD-1 mice (6-8 weeks old; Charles River, Hollister, Calif.) were treated with 2.0 mg/Kg of CNP derivative s1 (dCNP-s1; PharmaIN Corp, Bothell, Wash.), and CNP derivative s2 (dCNP-s2: PharmaIN Corp, Bothell, Wash.) via subcutaneous bolus administration between the shoulder blades.

[5] = Immune activation in normal healthy mice (blood FACS, spleen gene expression); type: in vivo; conditions: normal healthy mice, 0.1, 0.3, 1.0 mg/kg s.c. day 1-5
Experimental: In this study, male C57BL/6J mice (6 weeks old n=3) were purchased from Kyodo (Saga, Japan) and maintained under a 12-hour light/12-hour dark cycle with free access to water and standard mouse diet (MF diet; Oriental Yeast Co., Ltd. Tokyo Japan). Mice were treated with a bolus dose of 0, 0.1, 0.3, and 1.0 mg/kg CNP derivative or dCNP (described in Example 1) in buffer (Methionine 100 mM (Tokyo Chemical Industry Co., Ltd., Tokyo, Japan), sucrose 100 mM (Tokyo Chemical Industry Co., Ltd.), histidine 50 mM (Tokyo Chemical Industry Co., Ltd.); in H2O (Otsuka Pharmaceutical, Tokushima, Japan)) or buffer alone (for control group). Administration is by bolus subcutaneous injection under isoflurane anesthesia, at day 1, 2, 3, 4, and 5. Blood was harvested on day 5 under the isoflurane vapor and plasma were obtained by added EDTA and red blood cells were removed by pharma lyse (BD, Franklin Lakes, N.J.). Cells were analyzed by FACS (BD, Franklin lakes, NJ). The spleen was harvested on day 5 under isoflurane vapor, then placed in the Tri reagent (Cosmobio, Tokyo, Japan) for further analysis. Statistical analysis was performed by Student t-tests by using GraphPad Prism *P<0.05 vs. Control. **P<0.01 vs Control (n=5).

[6] = Pharmacokinetic study: plasma CNP (ELISA) after subcutaneous bolus in CD-1 mice; conditions: subcutaneous 2.0 mg/Kg, FIG. 1A
Experimental: All test articles were formulated or dissolved in 100 mM sorbitol, 100 mM methionine, 20 mM histidine, pH 6.0. […] Blood samples were processed in K2EDTA tubes to obtain plasma. Plasma was analyzed by commercially available CNP ELISA kit from Phoenix Pharmaceuticals (cat #EKE-012-03). […] [SEQ ID NO. 6]. […] The details of the polymer are described in Castillo et al., Pharm. Res., (2012) 29(1); p 306-18, herein incorporated by reference in its entirety.
Error bars represent standard deviation of n=5 plasma samples.

[7] = species not stated; cited from earlier work
[8] = bolus injection, healthy human volunteers; cited from earlier work

CC(=O)O[C@@]12CO[C@@H]1C[C@H](O)[C@@]1(C)C(=O)[C@H](O)C3=C(C)[C@@H](OC(=O)[C@H](O)[C@@H](NC(=O)OC(C)(C)C)c4ccccc4)C[C@@](O)([C@@H](OC(=O)c4ccccc4)[C@H]21)C3(C)C [Docetaxel]
anti-tumor effect with anti-CD8 antibody ([1]; anti-CD8 5 mg/Kg i.p.): could not be neutralized by Anti-CD8
Ang 2 gene expression within the prostate tumor [2]: not
TGFβ gene expression within the prostate tumor [2]: not
alpha-smooth muscle actin (α-SMA) gene expression within the prostate tumor [2]: not
tumor growth suppressing effect in the presence of Anti-CD8 antibody [3]: remained

CC[C@H](C)[C@@H]1NC(=O)[C@H](CCCNC(=N)N)NC(=O)[C@H](CC(=O)O)NC(=O)[C@H](CC(C)C)NC(=O)[C@H](CCCCN)NC(=O)[C@H](CC(C)C)NC(=O)CNC(=O)[C@H](Cc2ccccc2)NC(=O)[C@@H](NC(=O)CNC(=O)COCCOCCNC(=O)COCCOCCNC(=O)CCCCCCCCCCCCCCCCC(=O)O)CSSC[C@@H](C(=O)O)NC(=O)CNC(=O)[C@H](CC(C)C)NC(=O)CNC(=O)[C@H](CO)NC(=O)[C@H](CCCC(N)=O)NC(=O)[C@H](CO)NC(=O)CNC1=O [dCNP-s1] ({C18 diacid-AEEA-AEEA}-GCFGLKLDRIGS[Aad](NH2)SGLGC-OH; disulfide 2-18)
blood level of CNP relative to native CNP at similar weight/Kg dose [4]: 10 fold

CC[C@H](C)[C@@H]1NC(=O)[C@H](CCCNC(=N)N)NC(=O)[C@H](CC(=O)O)NC(=O)[C@H](CC(C)C)NC(=O)[C@H](CCCCN)NC(=O)[C@H](CC(C)C)NC(=O)CNC(=O)[C@H](Cc2ccccc2)NC(=O)[C@@H](NC(=O)CNC(=O)COCCOCCNC(=O)COCCOCCNC(=O)CC[C@H](NC(=O)CCCCCCCCCCCCCCCCC(=O)O)C(=O)O)CSSC[C@@H](C(=O)O)NC(=O)CNC(=O)[C@H](CC(C)C)NC(=O)CNC(=O)[C@H](CO)NC(=O)[C@H](CCCC(N)=O)NC(=O)[C@H](CO)NC(=O)CNC1=O [dCNP-s2] ({C18 diacid-γGlu-AEEA-AEEA}-GCFGLKLDRIGS[Aad](NH2)SGLGC-OH; disulfide 2-18)
blood level of CNP relative to native CNP at similar weight/Kg dose [4]: 10 fold

CCCCCCCCCCCCCCCCCC(=O)N[C@@H](CCCCN)C(=O)N[C@@H](CCCCN)C(=O)N[C@@H](CCCCN)C(=O)N[C@@H](CCCCN)C(=O)NCC(=O)NCC(=O)NCC(=O)NCC(=O)N[C@@H](CC(C)C)C(=O)N[C@@H](CO)C(=O)N[C@@H](CCCCN)C(=O)NCC(=O)N[C@H]1CSSC[C@@H](C(=O)O)NC(=O)CNC(=O)[C@H](CC(C)C)NC(=O)CNC(=O)[C@H](CO)NC(=O)[C@H](CCSC)NC(=O)[C@H](CO)NC(=O)CNC(=O)[C@H]([C@@H](C)CC)NC(=O)[C@H](CCCNC(=N)N)NC(=O)[C@H](CC(=O)O)NC(=O)[C@H](CC(C)C)NC(=O)[C@H](CCCCN)NC(=O)[C@H](CC(C)C)NC(=O)CNC(=O)[C@H](Cc2ccccc2)NC1=O [dCNP]
lethality ([1]; TRAMPC-1 tumor bearing mice): less lethal than cytotoxic chemotherapeutic agent (Docetaxel)
cytotoxic (CD8) T-cells in blood [5]: increase

CC[C@H](C)[C@@H]1NC(=O)[C@H](CCCNC(=N)N)NC(=O)[C@H](CC(=O)O)NC(=O)[C@H](CC(C)C)NC(=O)[C@H](CCCCN)NC(=O)[C@H](CC(C)C)NC(=O)CNC(=O)[C@H](Cc2ccccc2)NC(=O)[C@@H](NC(=O)CNC(=O)[C@H](CCCCN)NC(=O)[C@H](CO)NC(=O)[C@H](CC(C)C)NC(=O)CN)CSSC[C@@H](C(=O)O)NC(=O)CNC(=O)[C@H](CC(C)C)NC(=O)CNC(=O)[C@H](CO)NC(=O)[C@H](CCSC)NC(=O)[C@H](CO)NC(=O)CNC1=O [native CNP]
plasma CNP [6]: low plasma level
half-life [7]: 2 to 13 min and 2 min
heart rate [8]: significant increase
systolic and diastolic blood pressure [8]: significant decrease
